Drawing on BindingDB's records for doi:10.1021/jm070166b (Merck Research Laboratories, 2007), this text covers IC50 for one compound.

SMILES strings stand for the structures.

One may read the IC50 as the concentration needed to halve the response being measured.

The nature of the experiment: Antagonist activity against human CCR2 receptor in human monocytes assessed as inhibition of chemotaxis.

As to `C[C@H]1CN([C@@H]2CC[C@H](C(=O)NCc3cc(C(F)(F)F)cc(C(F)(F)F)c3)C2)CC[C@@]12C=Cc1ccccc12` [(1S,3R)-N-{[3,5-bis(trifluoromethyl)phenyl]methyl}-3-[(1R,5'R)-5'-methylspiro[indene-1,4'-piperidine]-1'-yl]cyclopentane-1-carboxamide], the IC50 was 57 nM.
